The source of these data is PubChem BioAssay AID192 (DTP/NCI, 2004).

Values joined by “and” are separate entries in the source; they are usually repeats but may differ in a detail not shown here. Equal entries are not always repeated. Inconclusive results and toxic doses are left out.

In the test the test system is BDF1 mice, B16 melanoma ip, median survival T/C. The test can be described thus: NCI In Vivo Anticancer Drug Screen. Data for tumor model B16 Melanoma (intraperitoneal) in B6D2F1 (BDF1) mice. The settings on record: endpoint: median survival time, higher = longer survival. On the procedure: The antitumor activity of compounds was measured in mice bearing transplantable tumors. Survival or tumor size were measured and the results are expressed as the measurement made in the treated group (T) divided by the measurement made in the vehicle treated control group (C). The tumor model used in this assay is B16 Melanoma (intraperitoneal) in B6D2F1 (BDF1) mice

Setting [1] is: dose: 50.0 mg/kg/injection, schedule: Q01DX009 (ip), vehicle: Klucel (hydroxypropylcellulose) (HPC).
Where [2] appears, read: dose: 50.0 mg/kg/injection, schedule: Q04DX003 (ip), vehicle: Klucel (hydroxypropylcellulose) (HPC).
The mark [3] stands for this setting: dose: 100.0 mg/kg/injection, schedule: Q01DX009 (ip), vehicle: Klucel (hydroxypropylcellulose) (HPC).
Where [4] appears, read: dose: 100.0 mg/kg/injection, schedule: Q04DX003 (ip), vehicle: Klucel (hydroxypropylcellulose) (HPC).
Setting [5] is: dose: 200.0 mg/kg/injection, schedule: Q04DX003 (ip), vehicle: Klucel (hydroxypropylcellulose) (HPC).
[6] abbreviates: dose: 100.0 mg/kg/injection, schedule: Q04DX003 (ip), vehicle: saline with Tween-80.
[7] abbreviates: dose: 200.0 mg/kg/injection, schedule: Q04DX003 (ip), vehicle: saline with Tween-80.
Setting [8] is: dose: 200.0 mg/kg/injection, schedule: Q01DX009 (ip), vehicle: Klucel (hydroxypropylcellulose) (HPC).
The mark [9] stands for this setting: dose: 400.0 mg/kg/injection, schedule: Q01DX009 (ip), vehicle: Klucel (hydroxypropylcellulose) (HPC).
Setting [10] is: dose: 400.0 mg/kg/injection, schedule: Q04DX003 (ip), vehicle: Klucel (hydroxypropylcellulose) (HPC).
[11] abbreviates: dose: 12.5 mg/kg/injection, schedule: Q01DX009 (ip), vehicle: Klucel (hydroxypropylcellulose) (HPC).
Setting [12] is: dose: 25.0 mg/kg/injection, schedule: Q01DX009 (ip), vehicle: Klucel (hydroxypropylcellulose) (HPC).

Take `Cc1cc(OC(=O)Nc2cccc(Cl)c2)ccc1[N+](=O)[O-]`: the T/C runs as follows: under setting [1], 93 % of control; under setting [2], 100 % of control; under setting [3], 86 % of control; under setting [4], 100 % of control; under setting [5], 107 % of control.
With `NC(=S)N/N=C/c1ccc2c(c1)OCO2`, the T/C (dose: 50.0 mg/kg/injection, schedule: Q04DX003 (ip), vehicle: saline with Tween-80) was 106 % of control; the T/C under setting [6] is 106 % of control; the T/C under setting [7] was 110 % of control.
Take `COc1ccc(-c2c(CC(=O)O)c3cc(OC)ccc3n2Cc2ccc(Cl)cc2)cc1`: the T/C under setting [3] was 95 % of control; the T/C under setting [6] is 100 % of control; the T/C under setting [8] is 94 % of control; the T/C under setting [7] was 95 % of control; the T/C under setting [9] is 95 % of control; the T/C (dose: 400.0 mg/kg/injection, schedule: Q04DX003 (ip), vehicle: saline with Tween-80) is 95 % of control.
`COc1cccc2c1C(=O)c1c(O)c3c(c(O)c1C2=O)C[C@@](O)(C(=O)CO)C[C@@H]3OC1CC([N+](C)(C)C)C(O)C(C)O1` (stereo not given in full): the T/C runs as follows: (dose: 4.32 mg/kg/injection, schedule: Q04DX003 (ip), vehicle: water) 108 % of control and 110 % of control; (dose: 6.48 mg/kg/injection, schedule: Q01DX001 (ip), vehicle: water) 107 % of control and 119 % of control; (dose: 7.2 mg/kg/injection, schedule: Q04DX003 (ip), vehicle: water) 116 % of control and 119 % of control; (dose: 10.8 mg/kg/injection, schedule: Q01DX001 (ip), vehicle: water) 103 % of control and 123 % of control; (dose: 12.0 mg/kg/injection, schedule: Q04DX003 (ip), vehicle: water) 108 % of control and 112 % of control; (dose: 18.0 mg/kg/injection, schedule: Q01DX001 (ip), vehicle: water) 105 % of control. Also, the T/C was 107 % of control (dose: 20.0 mg/kg/injection, schedule: Q04DX003 (ip), vehicle: water); 102 % of control and 113 % of control (dose: 30.0 mg/kg/injection, schedule: Q01DX001 (ip), vehicle: water).
Take `COC(=O)C1(C(=O)OC)C2C(=O)C3C(C21)C3(C(=O)OC(C)(C)C)C(=O)OC(C)(C)C` (stereo not given): the T/C was 111 % of control under setting [4], 101 % of control under setting [5] and 98 % of control under setting [10].
Turning to `O=S(=O)(O)O.[NH-]CC1(C[NH-])CCCCC1.[Pt+2]`, the T/C (dose: 8.0 mg/kg/injection, schedule: Q04DX003 (ip), vehicle: dextrose) was 161 % of control.
For the compound `CCOC(=O)CC1=CCCCC1`, the T/C is 100 % of control (dose: 70.0 mg/kg/injection, schedule: Q01DX009 (ip), vehicle: Klucel (hydroxypropylcellulose) (HPC)); 106 % of control (dose: 140.0 mg/kg/injection, schedule: Q01DX009 (ip), vehicle: Klucel (hydroxypropylcellulose) (HPC)); 100 % of control (dose: 280.0 mg/kg/injection, schedule: Q01DX009 (ip), vehicle: Klucel (hydroxypropylcellulose) (HPC)).
With `Cc1ccc(S(=O)(=O)N=S2CCCC2)cc1`, the T/C runs as follows: under setting [2], 100 % of control; under setting [4], 102 % of control; under setting [5], 103 % of control; under setting [10], 102 % of control.
With `C=C(C)[C@H]1Cc2c(ccc3c2O[C@@H]2COc4cc(OC)c(OC)cc4[C@@H]2C3=O)O1`, the T/C was 92 % of control and 99 % of control (dose: 4.0 mg/kg/injection, schedule: Q01DX009 (ip), vehicle: saline with Tween-80); 105 % of control (dose: 8.0 mg/kg/injection, schedule: Q01DX009 (ip), vehicle: saline with Tween-80); 98 % of control (dose: 16.0 mg/kg/injection, schedule: Q01DX009 (ip), vehicle: saline with Tween-80).
As to `CCCCCCCCCCCC[N+](C)(C)Cc1ccccc1`, the T/C is 100 % of control and 110 % of control (dose: 0.25 mg/kg/injection, schedule: Q01DX009 (ip), vehicle: saline); 103 % of control (dose: 0.25 mg/kg/injection, schedule: Q04DX003 (ip), vehicle: saline); 97 % of control and 105 % of control and 107 % of control (dose: 0.5 mg/kg/injection, schedule: Q01DX009 (ip), vehicle: saline); 95 % of control and 100 % of control (dose: 0.5 mg/kg/injection, schedule: Q04DX003 (ip), vehicle: saline); 92 % of control and 104 % of control (dose: 1.0 mg/kg/injection, schedule: Q01DX009 (ip), vehicle: saline); 96 % of control (dose: 1.0 mg/kg/injection, schedule: Q04DX003 (ip), vehicle: saline). Moreover, the T/C is 150 % of control (dose: 2.0 mg/kg/injection, schedule: Q01DX009 (ip), vehicle: saline with Tween-80); 88 % of control and 106 % of control (dose: 2.0 mg/kg/injection, schedule: Q01DX009 (ip), vehicle: saline); 158 % of control (dose: 2.0 mg/kg/injection, schedule: Q04DX003 (ip), vehicle: saline with Tween-80); 88 % of control (dose: 2.0 mg/kg/injection, schedule: Q04DX003 (ip), vehicle: saline); 94 % of control and 100 % of control (dose: 4.0 mg/kg/injection, schedule: Q01DX009 (ip), vehicle: saline); 177 % of control (dose: 4.0 mg/kg/injection, schedule: Q04DX003 (ip), vehicle: saline with Tween-80). The T/C (dose: 4.0 mg/kg/injection, schedule: Q04DX003 (ip), vehicle: saline) is 93 % of control.
As to `O=c1c(O)c(-c2cc(O)c(O)c(O)c2)oc2cc(O)cc(O)c12`, the T/C is, setting by setting: (dose: 25.0 mg/kg/injection, schedule: Q02DX009 (ip), vehicle: saline with Tween-80) 95 % of control; (dose: 50.0 mg/kg/injection, schedule: Q02DX009 (ip), vehicle: saline with Tween-80) 110 % of control; (dose: 100.0 mg/kg/injection, schedule: Q02DX009 (ip), vehicle: saline with Tween-80) 105 % of control.
As to `C[As](C)[Se]C1OC(CO)C(O)C(O)C1O` (stereo not given), the T/C is 112 % of control under setting [11], 106 % of control under setting [12] and 104 % of control under setting [1].
Regarding `CCN(N=Nc1ccc(C)cc1)N=Nc1ccc(C)cc1`, the T/C under setting [3] is 90 % of control, the T/C under setting [8] is 96 % of control and the T/C under setting [9] is 86 % of control.
On to `CCOC(=O)/C=C/c1ccc2c(c1)OCO2`, for which the T/C reads like this: (dose: 66.0 mg/kg/injection, schedule: Q04DX003 (ip), vehicle: saline with Tween-80) 97 % of control; (dose: 100.0 mg/kg/injection, schedule: Q01DX009 (ip), vehicle: saline with Tween-80) 104 % of control; under setting [6], 97 % of control; (dose: 150.0 mg/kg/injection, schedule: Q04DX003 (ip), vehicle: saline with Tween-80) 100 % of control; (dose: 200.0 mg/kg/injection, schedule: Q01DX009 (ip), vehicle: saline with Tween-80) 106 % of control; (dose: 400.0 mg/kg/injection, schedule: Q01DX009 (ip), vehicle: saline with Tween-80) 102 % of control.
For the compound `N=C(N)c1nn(C2OC(CO)C(O)C2O)c2ncnc(N)c12` (stereo not given), the T/C reads like this: (dose: 0.78 mg/kg/injection, schedule: Q01DX009 (ip), vehicle: Klucel (hydroxypropylcellulose) (HPC)) 97 % of control; (dose: 1.56 mg/kg/injection, schedule: Q01DX009 (ip), vehicle: Klucel (hydroxypropylcellulose) (HPC)) 98 % of control; (dose: 3.12 mg/kg/injection, schedule: Q01DX009 (ip), vehicle: Klucel (hydroxypropylcellulose) (HPC)) 93 % of control and 99 % of control; (dose: 6.25 mg/kg/injection, schedule: Q01DX009 (ip), vehicle: Klucel (hydroxypropylcellulose) (HPC)) 102 % of control; under setting [11], 90 % of control; under setting [12], 101 % of control.
On to `CCOC12c3ccccc3N(S(C)(=O)=O)C(C)C1C2(Br)Br` (stereo not given), for which the T/C reads like this: (dose: 75.0 mg/kg/injection, schedule: Q04DX003 (ip), vehicle: Klucel (hydroxypropylcellulose) (HPC)) 104 % of control; (dose: 150.0 mg/kg/injection, schedule: Q04DX003 (ip), vehicle: Klucel (hydroxypropylcellulose) (HPC)) 87 % of control; (dose: 300.0 mg/kg/injection, schedule: Q04DX003 (ip), vehicle: Klucel (hydroxypropylcellulose) (HPC)) 107 % of control.
As to `Nc1ncnc(N)c1N=O`, the T/C runs as follows: (dose: 50.0 mg/kg/injection, schedule: Q01DX009 (ip), vehicle: saline) 118 % of control; (dose: 100.0 mg/kg/injection, schedule: Q01DX009 (ip), vehicle: saline) 115 % of control.
